According to publication PMC8895007, “Crystal structures of PigF, an O-methyltransferase involved in the prodigiosin synthetic pathway, reveal an induced-fit substrate-recognition mechanism” (IUCrJ, 2022):

B1: PigF, O-methyltransferase of the prodigiosin synthetic pathway from Serratia marcescens FS14 (enzyme)
chain: MPLTKQDAVNQMMGFFQAKALTAALALKLFDQLRDRDADAAHIAARLDCPARSTEQLLIALRAMGYLDQRDGLYHLPAAHRAFLLSDEPQWLGWLGRHIDTFLYPLWGELKTAVRNDAHQRRTVFGDDRSWFDILYQNPDDVADFQEFLGKFAAPFIAGFVRDYDFSQHRAFLDIGSGIGSLPMAIADAYPGIALAICELPQASAFLRDKLTLQGYGERIDVVEGDVISGDLPIGGYDLIHLGWMLHDYAPETQLTILRNIYRAMPAGGRFIASETPLNEDKSGPEFTALLSLNMLVSTDGGIESSAQEYLDRFRLAGFSNARIMKIAGPRTLIVGEK
notes: PigF of Serratia marcescens FS14, 338 amino-acid residues; 100% identical to PigF of S. marcescens VGH107 (NCBI WP 004940222.1); residues 3-338 are seen in both chains of the PigF-SAH structure; Cloned into pET-24b as in Liu et al., 2012; The results call the protein N-terminally polyhistidine-tagged; pET-24b usually adds a C-terminal His tag (surmise); Crystallised with 2 mM SAH (small molecule) …

Legend:
[1] = biological target: T1, PigF (Serratia marcescens, UniProt Q5W249); assay: X-ray crystal structure (co-crystallisation), […] A; type: binding; details: 2 mM SAH premixed 30 min; pH 4.6, 12% MPD; cofactor site in C-terminal catalytic domain
T1 construct: residues 3-338 seen in SAH complex

[2] = biological target: the molecule itself; assay: native gel or EMSA; nondenaturing gel, comparison with standards; PigF in solution

Molecule	X-ray crystal structure (co-crystallisation), 1.97 A [1]	stoichiometry N [2]
Nc1ncnc2c1ncn2[C@@H]1O[C@H](CSCC[C@H](N)C(=O)O)[C@@H](O)[C@H]1O [S-adenosylhomocysteine]	the resulting phased map revealed clear electron density for the entire protein molecule and the SAH cofactor	–
B1	–	2
